The subject of the series is diamondback moth (Plutella xylostella). Put plainly: Test Example 1: cabbage seedling spray test against diamondback moth larvae. Type of series: in vivo. The conditions noted are these: 500 ppm diluted solution sprayed on cabbage seedling, 20 mL/seedling; five second instar larvae; 25° C. for 5 days. On the procedure:
Thirty-five (35) parts of a mixture of polyoxyethylene alkyl ether sulfate ammonium salt and wet silica (weight ratio of 1:1), 20 parts of the compound A, and 45 parts of water were mixed thoroughly. The resulting mixture was diluted with water containing 0.03 v/v % of Shindain (registered trademark) to prepare a diluted solution containing 500 ppm of the compound A. The diluted solution was sprayed into the cabbage (Brassicae oleracea) seedling (on the developmental stage of the second to third true leaf) that is planted in a container in a ratio of 20 mL/seedling.
Thereafter, the stem and leaf of thereof was cut out and then was installed into the container that was covered with the filter paper. Five second instar larvae of diamondback moth (Plutella xylostella) were released into the container, and the container was allowed to stand at 25° C. for 5 days. Thereafter, the surviving insects were counted, and the mortality was calculated from the following equation, and as a result, the mortality was 100%. Mortality (%)=(1−Number of the surviving insects/5)×100
The test was carried out according to Test Example 1 using the compound B instead of the compound A. As a result, the mortality was 0%.

`COC(=O)COC(=O)COc1ncccc1Oc1cc(-n2c(=O)cc(C(F)(F)F)n(C)c2=O)c(F)cc1Cl` [Compound B] showed a Mortality of 0%.

Molecule `CCOC(=O)COC(=O)COc1ncccc1Oc1cc(-n2c(=O)cc(C(F)(F)F)n(C)c2=O)c(F)cc1Cl` [Compound A] returned a Mortality of 100%.

The record behind these values is patent US12022833B2, “Uracil compound and composition for controlling harmful arthropods comprising the same” (Sumitomo Chemical Company, Limited, priority 2018, dated 2024).
